In brackets after ≈: the same amount, converted by molar mass.
How the values were obtained:
Assay type in all cases: functional
[1] = test system: Mycolicibacterium smegmatis; test: Antimycobacterial activity against wild-type Mycobacterium smegmatis MC2 155; details: str. MC2 155
[2] = test system: Mycobacterium tuberculosis; test: Ratio of MBC99.9 to MIC for Mycobacterium tuberculosis LV54
[3] = test system: Mycolicibacterium smegmatis; test: Antimycobacterial activity against Mycobacterium smegmatis ICHO1018 overexpressing KasB
[4] = test system: Mycolicibacterium smegmatis; test: Antimycobacterial activity against Mycobacterium smegmatis ICHO1017 overexpressing KasA
[5] = test system: Mycolicibacterium smegmatis; test: Antimycobacterial activity against Mycobacterium smegmatis ICHO1019 overexpressing FabH
[6] = test system: Mycobacterium tuberculosis; test: Antimycobacterial activity against Mycobacterium tuberculosis LV54 by microbroth dilution method
[7] = test system: Mycolicibacterium smegmatis; test: Antimycobacterial activity against Mycobacterium smegmatis MC2 155 under aerobic condition after 48 hrs by MTT assay; details: str. MC2 155, 48 h
[8] = test system: Mycolicibacterium smegmatis; test: Antimycobacterial activity against Mycobacterium smegmatis ICHO1001 harboring pMV261
[9] = test system: Mycobacterium tuberculosis; test: Ratio of MBC99.9 to MIC for Mycobacterium tuberculosis H37Rv ATCC 27294
[10] = test system: Mycolicibacterium smegmatis; test: Selectivity ratio of MIC for Mycobacterium smegmatis ICHO1018 overexpressing KasB to MIC for wild-type Mycobacterium smegmatis MC2 155
[11] = test system: Mycobacterium tuberculosis; test: Antimycobacterial activity against Mycobacterium tuberculosis H37Rv ATCC 27294 by microbroth dilution method
[12] = test system: Mycolicibacterium smegmatis; test: Antimycobacterial activity against Mycobacterium smegmatis MC2 155 under hypoxic condition after 96 hrs; details: str. MC2 155, 96 h

Row | SMILES | MIC [1] [µg/mL] | Ratio [2] | MIC [3] [µg/mL] | MIC [4] [µg/mL] | MIC [5] [µg/mL] | MIC [6] [µg/mL] | MIC [7] [µg/mL] | MIC [8] [µg/mL] | Ratio [9] | Ratio [10] | MIC [11] [µg/mL] | MIC [12] [µg/mL]
1 | C=C1C[C@@]23C=CC(=O)[C@@](C)(CCC(=O)Nc4c(O)ccc(C(=O)O)c4O)[C@@H]2C[C@@H]1CC3 (racemic) [PLATENCIN] | 0.5 (≈ 1.18 µM) | >64 | > 8.5 | 1 (≈ 2.35 µM) | 1 (≈ 2.35 µM) | 1 (≈ 2.35 µM) | 0.5 (≈ 1.18 µM) | 0.5 (≈ 1.18 µM) | >64 | >17 | 2 (≈ 4.7 µM) | 0.3 (≈ 0.705 µM)
2 | NNC(=O)c1ccncc1 [ISONIAZID] | – | – | – | – | – | – | 2.5 (≈ 18.2 µM) | – | – | – | – | 25 (≈ 182 µM)
